ChEMBL document CHEMBL5579833, “The U.S. FDA approved cardiovascular drugs from 2011 to 2023: A medicinal chemistry perspective” (Eur J Med Chem, 2024)
pEC50, pIC50, pKi: −log10 of the molar value. Where a name gives a salt, the structure may show the parent alone. Blank lines part the entries; values can stand above or below the compound they belong to.

What was measured:
[1] = Activation of Myosin S1 ATPase activity in bovine Cardio-myofibril
[2] = Plasma protein binding in cynomolgus monkey
[3] = Elimination half life in cynomologus monkey; conditions: cynomolgus monkey, in vivo
[4] = target: T1, Type-2 angiotensin II receptor (Homo sapiens, UniProt P50052); test: Inhibition of Angiotensin-2 receptor (unknown origin)
T1 sequence (P50052 whole entry): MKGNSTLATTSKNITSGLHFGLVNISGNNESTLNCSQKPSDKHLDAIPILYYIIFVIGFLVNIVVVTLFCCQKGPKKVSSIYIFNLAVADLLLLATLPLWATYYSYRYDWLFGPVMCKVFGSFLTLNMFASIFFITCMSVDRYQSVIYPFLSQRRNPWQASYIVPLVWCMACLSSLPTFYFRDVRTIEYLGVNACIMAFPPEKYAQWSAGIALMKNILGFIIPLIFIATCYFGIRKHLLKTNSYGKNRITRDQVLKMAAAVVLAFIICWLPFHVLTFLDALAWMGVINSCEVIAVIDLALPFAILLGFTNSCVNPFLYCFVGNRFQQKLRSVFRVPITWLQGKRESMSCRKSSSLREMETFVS

[5] = Inhibition of ApoB lipoprotein secretion in human HepG2 cells; format: functional; conditions: read-out: ED50 (the source's name)
[6] = organism: Rattus norvegicus; test: Antithrombotic activity in fibrin-rich platelet-poor rat thrombin
[7] = target: P2Y purinoceptor 12 (Homo sapiens, UniProt Q9H244); test: Binding affinity to human P2Y12 assessed as inhibition constant
[8] = tested on: Platelet; test: Inhibition of thrombin-induced human platelet aggregation

P2Y purinoceptor 12, sequence (Q9H244 whole entry): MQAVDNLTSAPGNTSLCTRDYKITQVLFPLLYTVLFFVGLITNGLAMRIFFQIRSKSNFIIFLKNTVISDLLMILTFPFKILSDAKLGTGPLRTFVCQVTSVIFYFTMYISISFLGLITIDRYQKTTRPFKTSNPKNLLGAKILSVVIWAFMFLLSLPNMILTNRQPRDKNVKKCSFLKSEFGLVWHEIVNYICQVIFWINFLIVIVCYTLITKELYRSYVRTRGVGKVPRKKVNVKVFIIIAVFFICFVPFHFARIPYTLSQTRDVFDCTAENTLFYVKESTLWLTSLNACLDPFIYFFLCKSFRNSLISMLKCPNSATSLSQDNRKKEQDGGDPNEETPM

- pIC50 [1]: 6.52
Compound: CC(C)n1c(=O)cc(N[C@@H](C)c2ccccc2)[nH]c1=O

- fraction unbound [2]: 0.06
- half-life [3]: 4.6 h
Compound: CCCCC(=O)N(Cc1ccc(-c2ccccc2-c2nnn[nH]2)cc1)[C@H](C(=O)O)C(C)C.CCOC(=O)[C@H](C)C[C@@H](Cc1ccc(-c2ccccc2)cc1)NC(=O)CCC(=O)O

- pIC50 [4]: 8.59
Compound: CCOc1nc2cccc(C(=O)OCc3oc(=O)oc3C)c2n1Cc1ccc(-c2ccccc2-c2noc(=O)[nH]2)cc1 [AZILSARTAN MEDOXOMIL]

Compound: O=C(NC1CCN(CCCCC2(C(=O)NCC(F)(F)F)c3ccccc3-c3ccccc32)CC1)c1ccccc1-c1ccc(C(F)(F)F)cc1 [LOMITAPIDE MESYLATE]
- pEC50 [5]: 9.10

Compound: O=C(NC[C@H]1CN(c2ccc(N3CCOCC3=O)cc2)C(=O)O1)c1ccc(Cl)s1 [RIVAROXABAN]
- ED50 [6]: 0.1 mg/kg

- pKi [7]: 8.37
Compound: CCCSc1nc(N[C@@H]2C[C@H]2c2ccc(F)c(F)c2)c2nnn([C@@H]3C[C@H](OCCO)[C@@H](O)[C@H]3O)c2n1 [TICAGRELOR]

Compound: CCOC(=O)N[C@@H]1CC[C@@H]2[C@@H](C1)C[C@H]1C(=O)O[C@H](C)[C@H]1[C@H]2/C=C/c1ccc(-c2cccc(F)c2)cn1 [VORAPAXAR]
- pIC50 [8]: 7.33
